{
  "source": "patent US10709714B2",
  "about": "(CL BioSciences LLC, priority 2013, dated 2020)",
  "key": {"[1]": {"test_system": "calvarial osteoblasts, hFOB, BMMSCs", "assay": "Proliferation (BrdU uptake) of bone-derived cells", "format": "cell-based, mouse, human", "conditions": "pre-incubation"}, "ovariectomized CD rats [2]": {"test_system": "ovariectomized CD rats", "assay": "MicroCT of trabecular and cortical bone, Model 2 rat OVX", "from_the_text": "Microcomputed tomography (MicroCT) and bone bending as well as osmium uptake and PCR were used to evaluate bone dynamics and osteoporotic features in the different animal models. MicroCT assesses density and volume of both the trabecular and cortical bones. Measurements of the radius and circumference of the cortical bone can be undertaken. Calculations of the connectivity density, the structural model index (SMI) as well as the stiffness (all measures of structure) of the bone can be made. The polar moment of inertia (pMOI) as well as fracture and workloads identify the underlying bone strength.\nBoth mice and rats were exposed to the PPI, omeprazole, while the Mastomys were exposed to the H2 Receptor antagonist, loxitidine. GA administration was a single subcutaneous injection at the start of acid inhibition. Pharmacokinetically, this dose ranges between 15-20 nmol over an 8 week period.\nThree groups were included for each animal model: a) Group A=placebo/saline treated (no OVX/Controls); b) Group B=OVX+Acid Inhibitory therapy (OVX); and c) Group C=GA treated ovariectomized animals (OVX+GA). At the termination of study (2 months), we evaluated whether the GA reversed the OVX-mediated alterations in bone parameters (microCT, bone strength and histomorphometry as well as circulating markers).\nAt the start of GA treatment, animals were 98 days (3.2 months) and at study termination, they were 163 days (5.4 months)."}, "[3]": {"test_system": "calvarial osteoblasts, hFOB, BMMSCs", "assay": "Bone mineralization of bone-derived cells (fluorescent binding to hydroxyapatite)", "format": "cell-based, mouse, human", "conditions": "pre-incubation", "method": "The binding of fluorescent Osteomalge to the hydroxyapatite portion of mineralized nodules was measured."}, "CCK2 receptor": {"biological_target": "T1, CCK2 receptor (Homo sapiens, UniProt P32239)", "T1 construct": "Gastrin stimulated both cAMP as well as calcitonin release from the well-differentiated human MTC cell line, MTC-SK; endogenous in cells; host or cells: MTC-SK (human medullary thyroid carcinoma cell line)", "T1 sequence (P32239 1-447)": "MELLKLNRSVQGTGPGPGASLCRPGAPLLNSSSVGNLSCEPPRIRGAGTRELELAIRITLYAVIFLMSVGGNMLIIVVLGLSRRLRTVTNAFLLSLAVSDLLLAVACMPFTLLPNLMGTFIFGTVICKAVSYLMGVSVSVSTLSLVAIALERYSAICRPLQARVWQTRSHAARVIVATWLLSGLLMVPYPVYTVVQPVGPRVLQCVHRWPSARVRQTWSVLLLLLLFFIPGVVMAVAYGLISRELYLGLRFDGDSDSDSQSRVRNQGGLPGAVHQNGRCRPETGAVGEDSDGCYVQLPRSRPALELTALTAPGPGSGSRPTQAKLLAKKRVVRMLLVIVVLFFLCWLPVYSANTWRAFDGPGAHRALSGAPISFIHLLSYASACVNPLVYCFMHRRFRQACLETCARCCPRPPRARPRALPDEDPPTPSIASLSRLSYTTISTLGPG", "assay": "Gastrin-stimulated cAMP production and calcitonin release/transcription in MTC-SK cells", "format": "cell-based", "conditions": "MTC-SK cells"}, "ovariectomized Mastomys [4]": {"test_system": "ovariectomized Mastomys", "assay": "Bone strength (Instron), Model 3 Mastomys OVX", "format": "in vivo", "procedure": "Finally, bone strength was examined in Mastomys using an Instron device. Femurs were loaded to failure in four-point bending. Tests were conducted with a deflection rate of 0.05 mm/sec using a servohydraulic testing machine (Instron model 8874; Instron Corp., Norwood, Mass., USA). […] Measurements of bone strength using the Instron device confirmed the utility of the gastrin-antagonist in reversing the OVX-mediated bone phenotype."}, "[5]": {"test_system": "human PTH cells co-cultured with MTC-SK cell line", "assay": "PTH cell / MTC-SK co-culture: PTH and calcitonin transcription and secretion", "format": "cell-based", "conditions": "preincubation 10 mins, YF476 10 nM", "procedure": "Human PTH cells isolated from surgical specimens were co-cultured with the MTC-SK cell line. […] These effects could be reversed by preincubation (10 mins) with the selective CCK2 receptor antagonist, YF476 (10 nM). […] PET=polyester membrane ([…]).\nThese effects were reversed by preincubation with the selective CCK2 antagonist, YF476."}, "ovariectomized CD-1 mice": {"test_system": "ovariectomized CD-1 mice", "assay": "Bone histomorphometry, Model 1 mouse OVX", "format": "in vivo", "conditions": "OVX CD-1 mice; GA single s.c.; 8 weeks", "text": "Patterns of bone mineralization (BM: decreased), resorption cavities (RC: increased) and osteoclasts (stained multinuclear cells (two arrows): increased) were affected by OVX. These effects were reversed by drug treatment. In one aspect, this means that targeting CCK2 receptors normalizes bone morphology irrespective of low estrogen levels.\nGastrin-antagonist treatment reversed these phenomena (FIG. 45)."}, "[6]": {"test_system": "calvarial osteoblasts, hFOB, BMMSCs", "assay": "Gene expression in bone-derived cells (ALKP, M-CSF, RANKL)", "format": "cell-based, mouse, human", "conditions": "YF476 1 nM, preincubation", "procedure": "This was reversed by the selective CCK2 receptor antagonist, YF476 (1 nM)."}, "ovariectomized CD rats [7]": {"test_system": "ovariectomized CD rats", "assay": "Bone strength (Instron), Model 2 rat OVX", "format": "in vivo"}, "ovariectomized Mastomys [8]": {"test_system": "ovariectomized Mastomys", "assay": "Bone histomorphometry, Model 3 Mastomys OVX", "format": "in vivo", "conditions": "GA single s.c., 8 weeks", "text": "Patterns of bone mineralization (BM: decreased), resorption cavities (RC: increased) and osteoclasts (stained multinuclear cells (two arrows): increased) were affected by OVX. These effects were reversed by drug treatment.\nThe gastrin-antagonist treatment reversed these phenomena (FIG. 55)."}, "ovariectomized CD rats [9]": {"test_system": "ovariectomized CD rats", "assay": "Bone histomorphometry, Model 2 rat OVX", "format": "in vivo", "conditions": "GA single s.c., 8 weeks", "text": "These effects were reversed by drug treatment. In one aspect, this reflects that targeting CCK2 receptors normalizes bone morphology irrespective of low estrogen levels.\nGastrin-antagonist treatment reversed these phenomena (FIG. 50)."}, "[10]": {"conditions": "OVX CD rats + omeprazole, GA 50 ug/animal single s.c., 8 weeks, cortical bone"}, "[11]": {"conditions": "OVX CD rats + omeprazole, GA 50 ug/animal single s.c., 8 weeks, trabecular bone"}, "[12]": {"conditions": "OVX CD rats + omeprazole, GA 50 ug/animal single s.c., 8 weeks, trabecular bone, listed as GA"}, "[13]": {"conditions": "OVX CD rats + omeprazole, GA 50 ug/animal single s.c., 8 weeks, trabecular bone, listed as Gastrin antagonist"}, "[14]": {"conditions": "OVX CD rats, GA-treated vs control, cortical bone"}, "[15]": {"conditions": "OVX CD rats, GA-treated vs control, trabecular bone"}, "[16]": {"conditions": "OVX Mastomys + loxitidine, GA 10 ug/animal single s.c., 8 weeks"}, "[17]": {"conditions": "OVX Mastomys, GA-treated vs control"}, "[18]": {"conditions": "OVX CD rats + omeprazole, GA 50 ug/animal single s.c., 8 weeks"}, "[19]": {"conditions": "OVX CD rats, GA-treated vs control"}},
  "note": "Entries after “also recorded” stand apart in the source; their conditions may differ. Marks after values point to notes of the source that are not given here.",
  "data": [
    {"smiles": "CNc1cccc(NC(=O)N[C@@H]2N=C(c3ccccn3)c3ccccc3N(CC(=O)C(C)(C)C)C2=O)c1", "note": "[YF476, netazepide]", "values": [
      {"measurement": "effect on gastrin-stimulated proliferation", "setting": "[1]", "value": "not inhibited; also recorded: not reversed"},
      {"measurement": "BS", "setting": "ovariectomized CD rats [2]; [10]", "value": 43.3},
      {"measurement": "BV/TV", "setting": "ovariectomized CD rats [2]; [10]", "value": 0.965},
      {"measurement": "Ct. Th", "setting": "ovariectomized CD rats [2]; [10]", "value": 0.68},
      {"measurement": "pMOI", "setting": "ovariectomized CD rats [2]; [10]", "value": 14.03},
      {"measurement": "Dens (Apparent Density, cortical)", "setting": "ovariectomized CD rats [2]; OVX CD rats + omeprazole, GA 50 ug/animal single s.c., 8 weeks, cortical bone, listed as GA", "value": 1098},
      {"measurement": "Dens (Apparent Density, cortical)", "setting": "ovariectomized CD rats [2]; OVX CD rats + omeprazole, GA 50 ug/animal single s.c., 8 weeks, cortical bone, listed as Gastrin-antagonist", "value": "1098±24"},
      {"measurement": "BS", "setting": "ovariectomized CD rats [2]; [11]", "value": 154},
      {"measurement": "BV/TV", "setting": "ovariectomized CD rats [2]; [11]", "value": 0.189},
      {"measurement": "Conns-Dens", "setting": "ovariectomized CD rats [2]; [11]", "value": 68.58},
      {"measurement": "Tb. N", "setting": "ovariectomized CD rats [2]; [11]", "value": 2.17},
      {"measurement": "Tb. Sp", "setting": "ovariectomized CD rats [2]; [11]", "value": 0.48},
      {"measurement": "Tb. Th", "setting": "ovariectomized CD rats [2]; [11]", "value": 0.09},
      {"measurement": "Dens (Apparent Density, trabecular)", "setting": "ovariectomized CD rats [2]; [12]", "value": 200.5},
      {"measurement": "SMI", "setting": "ovariectomized CD rats [2]; [12]", "value": 1.33},
      {"measurement": "Dens (Apparent Density, trabecular)", "setting": "ovariectomized CD rats [2]; [13]", "value": "204±27"},
      {"measurement": "SMI", "setting": "ovariectomized CD rats [2]; [13]", "value": "1.3±0.17"},
      {"measurement": "% Change BS", "setting": "ovariectomized CD rats [2]; [14]", "value": "−13", "unit": "%*"},
      {"measurement": "% Change BV/TV", "setting": "ovariectomized CD rats [2]; [14]", "value": 0, "unit": "%**"},
      {"measurement": "% Change Ct. Th", "setting": "ovariectomized CD rats [2]; [14]", "value": "+12%*"},
      {"measurement": "% Change Dens (Apparent Density, cortical)", "setting": "ovariectomized CD rats [2]; [14]", "value": "−4%*^,**"},
      {"measurement": "% Change pMOI", "setting": "ovariectomized CD rats [2]; [14]", "value": "−22", "unit": "%*"},
      {"measurement": "% Change BS", "setting": "ovariectomized CD rats [2]; [15]", "value": "−21", "unit": "%"},
      {"measurement": "% Change BV/TV", "setting": "ovariectomized CD rats [2]; [15]", "value": "−30", "unit": "%**"},
      {"measurement": "% Change Conns-Dens", "setting": "ovariectomized CD rats [2]; [15]", "value": "+8%"},
      {"measurement": "% Change Dens (Apparent Density, trabecular)", "setting": "ovariectomized CD rats [2]; [15]", "value": "−30%*^, **"},
      {"measurement": "% Change SMI", "setting": "ovariectomized CD rats [2]; [15]", "value": "+143%*"},
      {"measurement": "% Change Tb. N", "setting": "ovariectomized CD rats [2]; [15]", "value": "−18", "unit": "%**"},
      {"measurement": "% Change Tb. Sp", "setting": "ovariectomized CD rats [2]; [15]", "value": "+9%**"},
      {"measurement": "% Change Tb. Th", "setting": "ovariectomized CD rats [2]; [15]", "value": "−13", "unit": "%**"},
      {"measurement": "effect on gastrin inhibition of mineralization", "setting": "[3]", "value": "inhibited; also recorded: not reversed"},
      {"measurement": "effect on gastrin-mediated calcitonin secretion", "setting": "CCK2 receptor", "value": "reversed"},
      {"measurement": "effect on gastrin-stimulated cAMP production", "setting": "CCK2 receptor", "value": "reversed"},
      {"measurement": "effect alone on cAMP production", "setting": "CCK2 receptor; without gastrin", "value": "no significant effect"},
      {"measurement": "Fracture Load", "setting": "ovariectomized Mastomys [4]; [16]", "value": 42.1},
      {"measurement": "Max Load", "setting": "ovariectomized Mastomys [4]; [16]", "value": 42.2},
      {"measurement": "Stiffness", "setting": "ovariectomized Mastomys [4]; [16]", "value": 311},
      {"measurement": "Total Work", "setting": "ovariectomized Mastomys [4]; [16]", "value": 14.8},
      {"measurement": "Yield (Stiffness)", "setting": "ovariectomized Mastomys [4]; [16]", "value": 280},
      {"measurement": "% Change Fracture Load", "setting": "ovariectomized Mastomys [4]; [17]", "value": "−25", "unit": "%"},
      {"measurement": "% Change Max Load", "setting": "ovariectomized Mastomys [4]; [17]", "value": "−25", "unit": "%"},
      {"measurement": "% Change Stiffness", "setting": "ovariectomized Mastomys [4]; [17]", "value": "−6", "unit": "%**"},
      {"measurement": "% Change Total Work", "setting": "ovariectomized Mastomys [4]; [17]", "value": "55%*^,**"},
      {"measurement": "% Change Yield (Stiffness)", "setting": "ovariectomized Mastomys [4]; [17]", "value": "−6", "unit": "%**"},
      {"measurement": "effect on gastrin effects in co-culture", "setting": "[5]", "value": "reversed"},
      {"measurement": "effect on OVX changes in bone mineralization, resorption cavities and TRAP-positive osteoclasts", "setting": "ovariectomized CD-1 mice", "value": "reversed"},
      {"measurement": "effect on gastrin-inhibited gene expression", "setting": "[6]", "value": "reversed and normalized"},
      {"measurement": "Fracture Load", "setting": "ovariectomized CD rats [7]; [18]", "value": 276},
      {"measurement": "Max Load", "setting": "ovariectomized CD rats [7]; [18]", "value": 282},
      {"measurement": "Stiffness", "setting": "ovariectomized CD rats [7]; [18]", "value": 565},
      {"measurement": "Total Work", "setting": "ovariectomized CD rats [7]; [18]", "value": 276},
      {"measurement": "Yield (Stiffness)", "setting": "ovariectomized CD rats [7]; [18]", "value": 508},
      {"measurement": "% Change Fracture Load", "setting": "ovariectomized CD rats [7]; [19]", "value": "−8", "unit": "%"},
      {"measurement": "% Change Max Load", "setting": "ovariectomized CD rats [7]; [19]", "value": 0, "unit": "%"},
      {"measurement": "% Change Stiffness", "setting": "ovariectomized CD rats [7]; [19]", "value": "−2", "unit": "%**"},
      {"measurement": "% Change Total Work", "setting": "ovariectomized CD rats [7]; [19]", "value": 0, "unit": "%"},
      {"measurement": "% Change Yield (Stiffness)", "setting": "ovariectomized CD rats [7]; [19]", "value": "−2", "unit": "%**"},
      {"measurement": "effect on OVX changes in bone mineralization, resorption cavities and TRAP-positive osteoclasts", "setting": "ovariectomized Mastomys [8]", "value": "reversed"},
      {"measurement": "effect on OVX changes in bone mineralization, resorption cavities and TRAP-positive osteoclasts", "setting": "ovariectomized CD rats [9]", "value": "reversed"}
    ]}
  ]
}
